Results published in patent publication US20240226128A1, “NOVEL COMPOUNDS WITH DUAL INHIBITION ACTIVITY AGAINST SARS-COV-2 CRITICAL ENZYMES RDRP, MPRO AND HUMAN TMPRSS2” (priority 2022, published 2024).

Assays:
SARS-CoV-2 = settings: comparator, FDA approved drug; cited from earlier work
[1] = system: SARS-CoV-2 (NRC-03-nhCoV strain); experiment: In vitro anti-SARS-CoV-2 activity of RH 1-23 compounds (Vero-E6 cells, crystal violet); type: cell-based
Protocol: The antiviral activity was carried out as previously described. Briefly, 96-well tissue culture plates were seeded with 2.4×10^4 Vero-E6 cells/and incubated overnight in Dulbecco's Modified Eagle's medium (DMEM) containing 10% Fetal Bovine Serum (FBS) and 1% penicillin/streptomycin antibiotic mixture at a humidified 37° C. incubator under 5% CO2. The cells were treated with SARS-CoV-2 (NRC-03-nhCoV strain, accession #EPI_ISL_430820) for viral adsorption, which was further overlaid with 50 μl DMEM containing varying concentrations of the tested compounds. Following incubation at 37° C. and 5% C02 for 72 h, the cells were fixed with 100 μl of 4% paraformaldehyde for 20 min and stained at room temperature with 0.1% crystal violet in distilled water for 15 min. The crystal violet dye was then dissolved in 100 μl methanol and the optical density of the obtained color was measured at 570 nm using Anthos Zenyth 200 rt plate reader (Anthos Labtec Instruments, Heerhugowaard, Netherlands).

In the case of `CC(C)C(=O)OC[C@H]1O[C@@H](n2ccc(NO)nc2=O)[C@H](O)[C@@H]1O` [Molnupiravir], the “in vitro antiviral activity against SARS-CoV-2” value (“in vitro antiviral activity” below) (SARS-CoV-2) is given as “μM range”.

In the case of `N#C[C@@]1(c2ccc3c(NC(=O)c4ccc(NC(=N)N)cc4)ncnn23)O[C@H](CO)[C@@H](O)[C@H]1O` [RH11, (2R,3R,4S,5R)-N-[7-(2-cyano-3,4-dihydroxy-5-hydroxymethyl-tetrahydro-furan-2-yl)-pyrrolo[2,1-f]-[1,2,4]-triazin-4-yl]-4-guanidino-benzamide], the “in vitro antiviral activity” value [1] is reported as “nM range”.

For `CC(C)c1cc(=O)oc2ccc(OC(=O)c3ccc(NC(=N)N)cc3)cc12` [RH12, 4-guanidino-benzoic acid 4-isopropyl-2-oxo-2H-chromen-6-yl ester], the “in vitro antiviral activity” value [1] was “nM range”.
